From patent US11155558B2, “Dual mode of action soluble guanylate cyclase activators and phosphodiesterase inhibitors and uses thereof” (TOPADUR PHARMA AG, priority 2017, dated 2021) come the findings set out here.

Data set [1] addresses PDE5 enzyme isolated from human platelets (Homo sapiens (Human), UniProt O76074). The data set can be described thus: PDE5 assay (Example 109), formation of 5′GMP from cGMP, SPA.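 On all read-outs here: tritiated 5′GMP counted by scintillation after SPA bead capture, enzyme reaction run 60 min at 22 °C, basal control is the mixture without enzyme.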 The following applies: for % inhibition at 5.0E−09 M: percent inhibition of control enzyme activity at 5.0E−09 M, assay of Example 109.
Protocol: Evaluation of the effects of compounds of the present invention on the activity of the human phosphodiesterase-5 quantified by measuring the formation of 5′GMP from cGMP using PDE5 enzyme isolated from human platelets.
Thereafter, the reaction is initiated by addition of the enzyme and the mixture is incubated for 60 min at 22° C.
For basal control measurements, the enzyme is omitted from the reaction mixture. Following incubation SPA beads are added. After 20 min at 22° C. under shaking, the amount of [3H]5′GMP is quantified with a scintillation counter (Topcount, Packard).
The standard inhibitory reference compound is dipyridamole, which is tested in each experiment at several concentrations to obtain an inhibition curve from which its IC50 value is calculated.
A short description of data set [2]: Measurements of human plasma protein binding. The note with it: for recovery: human. The data set is classed as in vitro ADME. The protocol:
An aliquot of 200 μL of human plasma containing test compound was spiked into donor well (red chamber) of the insert. 350 μL of PBS was spiked into receiver well (white chamber) of the insert.
The samples were matrix equilibrated with opposite matrix (25 μL of plasma/buffer sample was matched with 25 μL of blank buffer/plasma). Matrix matched samples were precipitated with 200 μL of acetonitrile containing internal standard. Samples were vortexed at 1000 rpm for 5 min and centrifuged at 4000 rpm for 10 min. Supernatant was separated, diluted 2 fold with water and analysed in LC-MS/MS. TO control samples were processed immediately after the preparation of plasma working stock solutions. These samples serves as a measure for calculating the percentage recovery of test compounds.

The term IC50 denotes the point on the concentration scale where inhibition reaches its midpoint. A lower IC50 goes with greater potency. The term % inhibition denotes the drop in the measured response relative to a control, in per cent. Usually fraction unbound stands for the share of the substance not bound to proteins or other matrix. A higher fraction unbound goes with weak binding.

A value given as a limit tells only on which side of the number the result lay.

Regarding `CCCOc1ccc(S(=O)(=O)N2CCN(CCO[N+](=O)[O-])CC2)cc1-c1nc2c(CCC)c(/C=N/O)n(CC)c2c(=O)[nH]1` [Compound 1a, (E)-2-(4-((3-(5-ethyl-6-((hydroxyimino)methyl)-4-oxo-7-propyl-4,5-dihydro-3H-pyrrolo[3,2-d]pyrimidin-2-yl)-4-propoxyphenyl)sulfonyl)piperazin-1-yl)ethyl nitrate], in data set [1], the IC50 was 12 nM and the “% inhibition at 5.0E−09 M” value worked out at 20.7%.
Taken in the same sequence, the figures for `CCCOc1ccc(S(=O)(=O)N2CCC(CCCO[N+](=O)[O-])CC2)cc1-c1nc2c(CCC)cn(CC)c2c(=O)[nH]1` [Compound 1d, 3-(1-((3-(5-ethyl-4-oxo-7-propyl-4,5-dihydro-3H-pyrrolo[3,2-d]pyrimidin-2-yl)-4-propoxyphenyl)sulfonyl)piperidin-4-yl)propyl nitrate] were greater than 10 nM and 13.4%.
Taken in the same sequence, the figures for `CCCc1c(/C=N/O)n(C)c2c(=O)[nH]c(-c3cc(S(=O)(=O)N4CCC(CCO[N+](=O)[O-])CC4)ccc3OCC)nc12` [Compound 2a, (E)-2-(1-((4-ethoxy-3-(6-((hydroxyimino)methyl)-5-methyl-4-oxo-7-propyl-4,5-dihydro-3H-pyrrolo[3,2-d]pyrimidin-2-yl)phenyl)sulfonyl)piperidin-4-yl)ethyl nitrate] were 2 nM and 13.4%.
Taken in the same sequence, the figures for `CCCc1cn(C)c2c(=O)[nH]c(-c3cc(S(=O)(=O)N4CCN(CCCO[N+](=O)[O-])CC4)ccc3OCC)nc12` [Compound 2b, 3-(4-((4-ethoxy-3-(5-methyl-4-oxo-7-propyl-4,5-dihydro-3H-pyrrolo[3,2-d]pyrimidin-2-yl)phenyl)sulfonyl)piperazin-1-yl)propyl nitrate] were 2 nM and 18.2%.
Regarding `CCCc1cn(C)c2c(=O)[nH]c(-c3cc(S(=O)(=O)N4CCC(CCO[N+](=O)[O-])CC4)ccc3OCC)nc12` [Compound 2c, 2-(1-((4-ethoxy-3-(5-methyl-4-oxo-7-propyl-4,5-dihydro-3H-pyrrolo[3,2-d]pyrimidin-2-yl)phenyl)sulfonyl)piperidin-4-yl)ethyl nitrate], in data set [2], the “% Bound in Plasma” value amounted to 99.65%, the fraction unbound was determined as 0.0035 and the recovery came to 105%.
Take `CCCc1cn(C)c2c(=O)[nH]c(-c3cc(S(=O)(=O)N4CCN(CCO[N+](=O)[O-])CC4)ccc3OCC)nc12` [Compound 2d, 2-(4-((4-ethoxy-3-(5-methyl-4-oxo-7-propyl-4,5-dihydro-3H-pyrrolo[3,2-d]pyrimidin-2-yl)phenyl)sulfonyl)piperazin-1-yl)ethyl nitrate]: in data set [1], half-maximal inhibition (IC50) required 1.2 nM and the “% inhibition at 5.0E−09 M” value came to 57.8%.
As for `CCCOc1ccc(S(=O)(=O)N2CCC(CCO[N+](=O)[O-])CC2)cc1-c1nc2c(CCC)cn(C)c2c(=O)[nH]1` [Compound 3a, 2-(1-((3-(5-methyl-4-oxo-7-propyl-4,5-dihydro-3H-pyrrolo[3,2-d]pyrimidin-2-yl)-4-propoxyphenyl)sulfonyl)piperidin-4-yl)ethyl nitrate], the “% inhibition at 5.0E−09 M” value in data set [1] is reported as 6.5%.
With `CCCOc1ccc(S(=O)(=O)N2CCC(CCO)CC2)cc1-c1nc2c(CCC)cn(CC)c2c(=O)[nH]1` [Compound 5, 5-ethyl-2-(5-((4-(2-hydroxyethyl)piperidin-1-yl)sulfonyl)-2-propoxyphenyl)-7-propyl-3,5-dihydro-4H-pyrrolo[3,2-d]pyrimidin-4-one], in data set [2], the “% Bound in Plasma” value was determined as 99.87%, the fraction unbound was 0.0013 and the recovery was found to be 102%. In addition, in data set [1], the IC50 amounted to 0.29 nM and the “% inhibition at 5.0E−09 M” value is 74.4%. Further, in data set [1] (human cGMP-specific PDE5, refers to Table 1), the “PDE5 inhibition (in words)” value is “much more potent PDE5 inhibitor”.
In turn, `CCCOc1ccc(S(=O)(=O)N2CCC(CCO)CC2)cc1-c1nc2c(CCC)c(CO)n(CC)c2c(=O)[nH]1` [Compound 6, 5-ethyl-2-(5-((4-(2-hydroxyethyl)piperidin-1-yl)sulfonyl)-2-propoxyphenyl)-6-(hydroxymethyl)-7-propyl-3,5-dihydro-4H-pyrrolo[3,2-d]pyrimidin-4-one] displayed an IC50 in data set [1] of 2.4 nM.
Consider `CCCOc1ccc(S(=O)(=O)N2CCC(CCO)CC2)cc1-c1nc2c(CCC)c(/C=N/O)n(CC)c2c(=O)[nH]1` [Compound 8, (E)-5-ethyl-2-(5-((4-(2-hydroxyethyl)piperidin-1-yl)sulfonyl)-2-propoxyphenyl)-4-oxo-7-propyl-4,5-dihydro-3H-pyrrolo[3,2-d]pyrimidine-6-carbaldehyde oxime], for which, in data set [1], the IC50 turned out to be 2.7 nM and the “% inhibition at 5.0E−09 M” value was 71.2%.
As to `CCCc1cn(C)c2c(=O)[nH]c(-c3cc(S(=O)(=O)N4CCC(CCO)CC4)ccc3OCC)nc12` [Compound 14, 2-(2-ethoxy-5-((4-(2-hydroxyethyl)piperidin-1-yl)sulfonyl)phenyl)-5-methyl-7-propyl-3,5-dihydro-4H-pyrrolo[3,2-d]pyrimidin-4-one], in data set [2], the “% Bound in Plasma” value is 99.43%, the fraction unbound stood at 0.0057 and the recovery was determined as 98.9%. In data set [1], the IC50 worked out at 0.3 nM.
In the case of `CCCOc1ccc(S(=O)(=O)N2CCC(CCCO)CC2)cc1-c1nc2c(CCC)cn(CC)c2c(=O)[nH]1` [Compound 15, 5-ethyl-2-(5-((4-(3-hydroxypropyl)piperidin-1-yl)sulfonyl)-2-propoxyphenyl)-7-propyl-3,5-dihydro-4H-pyrrolo[3,2-d]pyrimidin-4-one], in data set [1], 1.8 nM corresponded to half-maximal inhibition (IC50) and the “% inhibition at 5.0E−09 M” value was found to be 50.3%.
On to `CCCc1c(/C=N/O)n(C)c2c(=O)[nH]c(-c3cc(S(=O)(=O)N4CCC(CCO)CC4)ccc3OCC)nc12` [Compound 17, (E)-2-(2-ethoxy-5-((4-(2-hydroxyethyl)piperidin-1-yl)sulfonyl)phenyl)-5-methyl-4-oxo-7-propyl-4,5-dihydro-3H-pyrrolo[3,2-d]pyrimidine-6-carbaldehyde oxime], for which the “% inhibition at 5.0E−09 M” value in data set [1] is listed as 33.2%.
Still for that read-out and setting: with `CCCc1cn(C)c2c(=O)[nH]c(-c3cc(S(=O)(=O)N4CCN(CCO)CC4)ccc3OCC)nc12` [Compound 20, 2-(2-ethoxy-5-((4-(2-hydroxyethyl)piperazin-1-yl)sulfonyl)phenyl)-5-methyl-7-propyl-3,5-dihydro-4H-pyrrolo[3,2-d]pyrimidin-4-one] the figure was 41.1%; with `CCCc1cn(C)c2c(=O)[nH]c(-c3cc(S(=O)(=O)N4CCN(CCCO)CC4)ccc3OCC)nc12` [Compound 23, 2-(2-ethoxy-5-((4-(3-hydroxypropyl)piperazin-1-yl)sulfonyl)phenyl)-5-methyl-7-propyl-3,5-dihydro-4H-pyrrolo[3,2-d]pyrimidin-4-one], 36.7%.
On to `CCCOc1ccc(S(=O)(=O)N2CCC(CCO)CC2)cc1-c1nc2c(CCC)cn(C)c2c(=O)[nH]1` [Compound 29, 2-(5-((4-(2-hydroxyethyl)piperidin-1-yl)sulfonyl)-2-propoxyphenyl)-5-methyl-7-propyl-3,5-dihydro-4H-pyrrolo[3,2-d]pyrimidin-4-one], for which, in data set [1], the “% inhibition at 5.0E−09 M” value is 46.4%.
Consider `CCCOc1ccc(S(=O)(=O)N2CCN(CCO)CC2)cc1-c1nc2c(CCC)cn(C)c2c(=O)[nH]1` [Compound 32, 2-(5-((4-(2-hydroxyethyl)piperazin-1-yl)sulfonyl)-2-propoxyphenyl)-5-methyl-7-propyl-3,5-dihydro-4H-pyrrolo[3,2-d]pyrimidin-4-one], for which the “% inhibition at 5.0E−09 M” value in data set [1] stood at 53.4%.
As for `CC(=O)CC(c1ccccc1)c1c(O)c2ccccc2oc1=O` (stereo not drawn) [Warfarin, reference compound], in data set [2], the “% Bound in Plasma” value came out at 97.28%, the fraction unbound stood at 0.0272 and the recovery was 101%.
Regarding `CCCOc1ccc(S(=O)(=O)N2CCN(CCO)CC2)cc1-c1nc2c(CCC)cn(CC)c2c(=O)[nH]1` [mirodenafil, 5-ethyl-2-(5-((4-(2-hydroxyethyl)piperazin-1-yl)sulfonyl)-2-propoxyphenyl)-7-propyl-3,5-dihydro-4H-pyrrolo[3,2-d]pyrimidin-4-one, reference compound], in data set [2], the “% Bound in Plasma” value stood at 98.94%, the fraction unbound came to 0.0106 and the recovery is 99.2%. In addition, in data set [1], the IC50 is 0.34 nM and the “% inhibition at 5.0E−09 M” value is 64.9%.
Turning to `CCCc1nn(C)c2c(=O)[nH]c(-c3cc(S(=O)(=O)N4CCN(C)CC4)ccc3OCC)nc12` [sildenafil, reference compound], in data set [2], the “% Bound in Plasma” value came out at 96.41%, the fraction unbound stood at 0.0359 and the recovery is 104%.
